Measured values published in PubChem BioAssay (NCI).
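Exposure lasted 48 hours, with cells grown in 96-well plates and compounds tested at five concentrations. At the GI50, growth is halved. TGI is the concentration that stops growth completely.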

Experiments:
Test in all cases: growth of human tumour cells (NCI), 48 h
[1] = system: MDA-MB-435
[2] = system: COLO 205 colon
[3] = system: HOP-62 NSCLC
[4] = system: MALME-3M melanoma
[5] = system: SNB-19 CNS
[6] = system: A498 renal
[7] = system: 786-0 renal
[8] = system: SF-268 CNS
[9] = system: HCC-2998 colon
[10] = system: TK-10 renal

`Nc1c(S(N)(=O)=O)cc(S(N)(=O)=O)cc1S(N)(=O)=O` was tested, and the TGI [1] was > 100 µM, the TGI [2] was > 100 µM and the TGI [3] was > 100 µM. For the same compound, the TGI [4] was > 100 µM, the TGI [5] was > 100 µM and the TGI [6] was > 100 µM. The TGI [7] was > 100 µM, the TGI [8] was > 100 µM and the TGI [9] was > 100 µM. For the same compound, the TGI [10] was > 100 µM.
`COc1ccc2c(c1)-c1c(c3cc(OC)ccc3n1CCN(C)C)CC2` showed a TGI [1] of 26.4 µM, a TGI [2] of 25.5 µM and a TGI [3] of 29.9 µM. For the same compound, the TGI [4] was 31 µM, the TGI [6] was 24.1 µM and the TGI [7] was 22.7 µM. The TGI [8] was 37.3 µM, the TGI [9] was 20.2 µM and the TGI [10] was 28.9 µM.
With `COC(=O)C1=C(C(=O)OC)SC(=C2SC3=C(SC(=C4SCCS4)S3)S2)S1` the TGI [1] was > 100 µM, the TGI [2] was > 100 µM and the TGI [3] was > 100 µM. For the same compound, the TGI [4] was > 100 µM, the TGI [5] was > 100 µM and the TGI [6] was > 100 µM. The TGI [7] was > 100 µM, the TGI [8] was > 100 µM and the TGI [10] was > 100 µM.
`CC1(C)N=C(N)N=C(N)N1c1cccc(OCc2cccc(N)c2)c1` was tested, and the TGI [1] was > 100 µM, the TGI [2] was > 100 µM and the TGI [3] was > 100 µM. The TGI [4] was > 100 µM, the TGI [5] was > 100 µM and the TGI [6] was > 100 µM. The TGI [7] was > 100 µM, the TGI [8] was > 100 µM and the TGI [10] was > 100 µM.
With `Oc1c(OCc2nnc(CCCCCCCCc3nnc(COc4ccc5ccccc5c4O)o3)o2)ccc2ccccc12` the TGI [1] was > 100 µM, the TGI [2] was > 100 µM and the TGI [4] was > 100 µM. For the same compound, the TGI [5] was > 100 µM, the TGI [6] was > 100 µM and the TGI [7] was 50.8 µM. For the same compound, the TGI [8] was > 100 µM, the TGI [9] was > 100 µM and the TGI [10] was > 100 µM.
With `c1c(N2CCOCC2)ssc1=[N+]1CCOCC1` the TGI [3] was > 100 µM, the TGI [4] was > 100 µM and the TGI [5] was > 100 µM. For the same compound, the TGI [6] was > 100 µM, the TGI [7] was > 100 µM and the TGI [8] was > 100 µM. For the same compound, the TGI [9] was > 100 µM and the TGI [10] was > 100 µM.
For `CC(=O)OC1CC2(O)C(CCC3(C)C(c4ccc(=O)oc4)CCC32O)C2(C)C1=CC(O)C1OC12` (stereo not drawn), the TGI [2] was 0.354 µM, the TGI [3] was 0.172 µM and the TGI [4] was 0.13 µM. For the same compound, the TGI [5] was 0.461 µM, the TGI [6] was 0.582 µM and the TGI [8] was 0.0874 µM. The TGI [9] was 0.436 µM.
With `O=C1/C(=C/c2ccc(Cl)cc2)CCCc2ccc(F)cc21` the GI50 [1] was 20.3 µM, the TGI [1] was > 100 µM and the GI50 [2] was 18.7 µM. It also gave a TGI [2] of 56.3 µM, a GI50 [4] of 6.45 µM and a TGI [4] of 31.8 µM. The GI50 [5] was 27.6 µM, the TGI [5] was 80.2 µM and the GI50 [8] was 19.9 µM. For the same compound, the TGI [8] was 46.9 µM, the GI50 [9] was 21.2 µM and the TGI [9] was 54.9 µM. The GI50 [10] was 15.7 µM and the TGI [10] was 43.5 µM.
In the case of `CCC(=O)Nc1ccc(NS(=O)(=O)c2ccc(Cl)cc2)cc1`, the TGI [1] is reported as > 100 µM, the TGI [2] is reported as > 100 µM and the TGI [3] is reported as > 100 µM. The TGI [4] was > 100 µM, the TGI [5] was > 100 µM and the TGI [6] was > 100 µM. For the same compound, the TGI [7] was > 100 µM, the TGI [8] was > 100 µM and the TGI [9] was > 100 µM.
With `COc1cc(OC)cc(Oc2nc3cc(F)c(F)cc3nc2-c2ccccc2)c1` the TGI [1] was > 100 µM, the TGI [2] was > 100 µM and the TGI [3] was > 100 µM. For the same compound, the TGI [4] was > 100 µM, the TGI [5] was > 100 µM and the TGI [6] was > 100 µM. For the same compound, the TGI [7] was > 100 µM, the TGI [8] was > 100 µM and the TGI [10] was > 100 µM.
`CCOC(=O)Cn1nnc2cc(Nc3c(C)[n+]([O-])c4cc(F)c(OCC)cc4[n+]3[O-])ccc21` was tested, and the TGI [1] was > 100 µM, the TGI [3] was 89.5 µM and the TGI [6] was > 100 µM. The TGI [7] was > 100 µM, the TGI [8] was > 100 µM and the TGI [10] was 64.4 µM.
With `Cc1ccc(S(=O)(=O)c2c(O)c3ccc(O)c(C)c3oc2=O)cc1` the TGI [1] was > 100 µM, the TGI [2] was > 100 µM and the TGI [4] was > 100 µM. For the same compound, the TGI [5] was > 100 µM, the TGI [7] was > 100 µM and the TGI [8] was > 100 µM. The TGI [9] was > 100 µM and the TGI [10] was > 100 µM.
`O=C(/C=C\Nc1ccccc1O)C(F)(F)F` was tested, and the TGI [1] was > 100 µM, the TGI [2] was 71.1 µM and the TGI [3] was > 100 µM. For the same compound, the TGI [4] was 91.3 µM, the TGI [5] was > 100 µM and the TGI [7] was > 100 µM. The TGI [8] was > 100 µM, the TGI [9] was > 100 µM and the TGI [10] was > 100 µM.
For `CCN(CCCCCCCCCCN1CC(=O)N(CCCCCCCCCCN(CC)Cc2ccccc2OC)CC1=O)Cc1ccccc1OC`, the GI50 [1] was 1.31 µM, the TGI [1] was 2.96 µM and the GI50 [2] was 1.05 µM. It also gave a TGI [2] of 2.52 µM, a GI50 [3] of 1.56 µM and a TGI [3] of 3.05 µM. For the same compound, the GI50 [4] was 1.64 µM, the TGI [4] was 3.47 µM and the GI50 [5] was 3.18 µM. The TGI [5] was 10.5 µM, the GI50 [6] was 1.09 µM and the TGI [6] was 2.94 µM. It also gave a GI50 [8] of 1.49 µM, a TGI [8] of 2.96 µM and a GI50 [9] of 1.46 µM. It also gave a TGI [9] of 2.9 µM.
With `N#C/C(=C\c1cccc(Br)c1)c1nc2ccccc2c(=O)[nH]1` the TGI [1] was > 100 µM, the TGI [2] was > 100 µM and the TGI [3] was 62.7 µM. For the same compound, the TGI [4] was > 100 µM, the TGI [5] was > 100 µM and the TGI [7] was > 100 µM. For the same compound, the TGI [8] was > 100 µM, the TGI [9] was > 100 µM and the TGI [10] was > 100 µM.
In the case of `Cc1cccc(NS(=O)(=O)c2ccc(N=Nc3c(O)c(C(=O)O)cc4ccccc34)cc2)n1`, the TGI [1] is reported as > 100 µM, the TGI [2] is reported as > 100 µM and the TGI [3] is reported as > 100 µM. The TGI [4] was > 100 µM, the TGI [5] was > 100 µM and the TGI [7] was > 100 µM. For the same compound, the TGI [8] was > 100 µM, the TGI [9] was > 100 µM and the TGI [10] was > 100 µM.
Work on `NCCN(CCN(C(=O)Nc1ccccc1)c1ccccc1)C(=O)Nc1ccccc1` yielded a TGI [2] of 67.4 µM, a TGI [3] of 34.8 µM and a TGI [4] of 34.2 µM. The TGI [5] was > 100 µM, the TGI [6] was 40.5 µM and the TGI [7] was 55.4 µM. The TGI [8] was 49 µM, the TGI [9] was 44.3 µM and the TGI [10] was 60.3 µM.
`CNC(=S)NNc1ncnc2c1c(-c1ccc(Cl)cc1)cn2-c1ccc(C)cc1` showed a TGI [1] of 23.6 µM, a TGI [2] of 29.6 µM and a TGI [3] of 39.2 µM. It also gave a TGI [4] of 33 µM, a TGI [5] of 36.6 µM and a TGI [6] of 49.6 µM. The TGI [7] was 24.2 µM, the TGI [8] was 26.8 µM and the TGI [10] was 35 µM.
With `O=C1CC(c2ccccc2Cl)C2(C(=O)NC(=O)NC2=O)C(c2ccccc2Cl)C1` (stereo not drawn) the TGI [1] was > 100 µM, the TGI [3] was > 100 µM and the TGI [4] was 72.4 µM. For the same compound, the TGI [5] was > 100 µM, the TGI [6] was > 100 µM and the TGI [7] was > 100 µM. The TGI [8] was > 100 µM, the TGI [9] was > 100 µM and the TGI [10] was > 100 µM.
In the case of `CCCCCCc1cc2cc(-c3csc(-c4ccc(OC)cc4)n3)c(=O)oc2cc1O`, the TGI [1] is reported as 18.4 µM, the TGI [2] is reported as > 100 µM and the TGI [3] is reported as 29.6 µM. The TGI [5] was 36 µM, the TGI [7] was 18 µM and the TGI [8] was 14.9 µM. The TGI [9] was 31.5 µM and the TGI [10] was 34.1 µM.
For `O=c1c(-c2ccccc2)c(SCCN2CCCCCC2)n(-c2ccccc2)c(=S)n1-c1ccccc1`, the TGI [1] was > 100 µM, the TGI [2] was > 100 µM and the TGI [3] was > 100 µM. For the same compound, the TGI [4] was 49.3 µM, the TGI [6] was 56.7 µM and the TGI [9] was 12.9 µM. For the same compound, the TGI [10] was > 100 µM.
With `CCCO/N=[N+](\[O-])N(CC)CC` the TGI [3] was > 100 µM, the TGI [5] was > 100 µM and the TGI [6] was > 100 µM. For the same compound, the TGI [8] was > 100 µM, the TGI [9] was > 100 µM and the TGI [10] was > 100 µM.
